Legend:
[1] = test system: dermatitis induced by repeated application of hapten on an NC/Nga mouse; experiment: Performance Evaluation Test 1: dermatitis induced by repeated application of hapten (PiCl) on NC/Nga mice; assay type: in vivo, NC/Nga Tnd Crj male mice; details: 0.5% in AIN93G feed; for score of dermatitis (progress of the atopic dermatitis): PiCl induction once a week for five weeks, vs control group, FIGS. 1 and 2
Protocol: The performance of stachyose mixed in livestock feeds was evaluated against the dermatitis induced by repeated application of hapten on an NC/Nga mouse frequently used as an atopic dermatitis model animal (M. Okada et al., Oyo Yakuri/Pharmcometrics, vol. 59, 135–139 (2000)).
(§1) NC/Nga Tnd Crj male mice at six weeks of age (purchased from Nihon Charles River) were habituated for two weeks. The animals decided as healthy were used for the experiments after an observation of general conditions and body weight measurement. The mice were divided into three groups so that the body weight was averaged. One group was composed of nine mice. A purified livestock feed (AIN93G produced by Oriental Yeast Co.) was used as a basic feed. The mice in Group 1 (a control group) was fed with the purified feed, while the mice in Groups 2 and 3 were fed with a feed prepared by adding the test samples as shown In Table 1 in the basic feed.
Stachyose used in this test was purified to a purity of 98% by ion exchange chromatography after extracting from soybeans with 70% ethanol. Saccharose used in this test was purchased from Wako Junyaku Kabushiki Kaisha.
The mice at eight weeks of age were used for sensation as follows. […]
The symptoms of the atopic dermatitis were observed as follows. The skin condition was observed twice a week starting from a day before the first induction, and the following items were evaluated based on the criteria of clinical syndromes of the human atopic dermatitis. […]
(§2) The score of dermatitis, serum total IgE concentration, and the average body weight and standard deviation thereof were calculated. The significant difference was evaluated by the Student's t-test. A significance level of 5% was evaluated as significant, and the results of the Student's t-test were expressed by dividing into a level of less than 5% (P<0.05) and less than 1% (P<0.01).

atopic dermatitis = details: Japanese Patent Application Laid-open No. Hei 11-255656; cited from earlier work
IgE = details: Japanese Patent Application Laid-open No. 2001-288093; cited from earlier work
[2] = test system: conventional grade NC/Nga mice that spontaneously start the atopic dermatitis; experiment: Performance Evaluation Test 2: spontaneous atopic dermatitis in conventional grade NC/Nga mice; assay type: in vivo, Conventional grade female NC/Nga mice; details: feed supplemented with 1% stachyose
Text: The effect of stachyose on the dermatitis was investigated using conventional grade NC/Nga mice that spontaneously start the atopic dermatitis without applying any haptens (H. Matsuda et al., International Immunology, vol. 9, 461–466 (1997)).
Conventional grade female NC/Nga mice at four weeks of age (purchased from Nihon SLC) were habituated for one week. The mice were divided into two groups so that the body weight was averaged. One group was composed of six mice. All the mice were freely fed on the purified livestock feed (AIN93G) before grouping, and the stachyose administration group was fed on a feed supplemented with 1% stachyose after grouping. The skin conditions were observed and evaluated once per two weeks from the day of start of grouping. The evaluation method was the same as in performance evaluation method 1.

serum total IgE = experiment: Serum total IgE concentration by EIA in PiCl-sensitized NC/Nga mice; assay type: in vivo, NC/Nga Tnd Crj male mice; details: 0.5% in AIN93G feed; blood on 43rd day after administration; vs control group; FIG. 4
Text: as §1
The serum total IgE concentration was measured as follows. The blood was extracted on day four before administration, and on 43 rd day after administration (the day for starting administration is counted as the first day). The blood (200 μL) is sampled from the orbital plexus venosus using a heparinated capillary. […]
as §2

Row | SMILES | score of dermatitis (progress of the atopic dermatitis) [1] | anti-atopic dermatitis action (atopic dermatitis) | production of IgE (IgE) | appearance of the skin (photograph of representative mouse) ([1]; compared with the control group (Group 1), FIG. 3) | onset of dermatitis ([2]; 6 to 8 weeks after grouping, control: evident dermatitis on face and ears) | scores of dermatitis ([2]; FIG. 5) | onset of dermatitis ([2]; week four after grouping, control: five of six mice with dermatitis on the face) | level of serum total IgE (serum total IgE)
1 | OC[C@H]1O[C@@](CO)(O[C@H]2O[C@H](CO)[C@@H](O)[C@H](O)[C@H]2O)[C@@H](O)[C@@H]1O [saccharose, reference compound] | No effects were observed | – | – | – | – | – | – | –
2 | OC[C@H]1O[C@H](OC[C@H]2O[C@H](O[C@]3(CO)O[C@H](CO)[C@@H](O)[C@@H]3O)[C@H](O)[C@@H](O)[C@@H]2O)[C@H](O)[C@@H](O)[C@H]1O [raffinose] | – | has an anti-atopic dermatitis action | has an action for suppressing production of IgE | – | – | – | – | –
3 | OC[C@H]1O[C@H](OC[C@H]2O[C@H](OC[C@H]3O[C@H](O[C@]4(CO)O[C@H](CO)[C@@H](O)[C@@H]4O)[C@H](O)[C@@H](O)[C@@H]3O)[C@H](O)[C@@H](O)[C@H]2O)[C@H](O)[C@@H](O)[C@H]1O [stachyose] | progress of the atopic dermatitis was evidently blocked | – | – | An evident difference of the appearance of the skin was observed | no onset of dermatitis was observed at all | the effect of stachyose is evident | no onset of the dermatitis was observed | does not influence the level of IgE
